Several values for one entry are separate records, joined by “and”; a condition that tells them apart may be missing. Equal values may be shown once.
Biological target: T1, human Notum (81–451 Cys330Ser) (Homo sapiens, UniProt Q6P988, C330S)
T1 construct: human Notum (81–451 Cys330Ser) as the enzyme; made in house
T1 sequence (Q6P988 81-451 C330S): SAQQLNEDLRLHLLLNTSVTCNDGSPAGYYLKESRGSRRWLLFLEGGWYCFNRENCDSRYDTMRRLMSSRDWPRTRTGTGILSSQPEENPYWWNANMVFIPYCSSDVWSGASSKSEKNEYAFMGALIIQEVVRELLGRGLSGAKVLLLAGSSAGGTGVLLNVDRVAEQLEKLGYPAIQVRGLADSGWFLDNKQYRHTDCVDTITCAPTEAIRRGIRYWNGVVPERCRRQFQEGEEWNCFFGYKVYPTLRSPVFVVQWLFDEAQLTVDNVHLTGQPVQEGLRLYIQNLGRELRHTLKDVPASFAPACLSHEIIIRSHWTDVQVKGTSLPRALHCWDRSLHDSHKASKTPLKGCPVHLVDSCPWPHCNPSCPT
Assay: Notum OPTS biochemical assay
Conditions: for IC50: OPTS substrate, mean, read-out: Notum IC50
Description: The optimization of 6 to deliver this profile was directed at three principle areas of these hit structures: (1) aryl ring 7 (Table 1); (2) the C4 substituent on triazole 8 (Table 2); and (3) further fine-tuning of the triazole 9 (Table 3). […] This assay was used to establish SAR and to identify preferred leads for additional studies.
Methods have been described in detail elsewhere.[23]−[26] Representative concentration–response curves are provided in the Supporting Information.

| Compound | IC50 | % I (@10 μM) | % I (@100 μM) |
| --- | --- | --- | --- |
| OCc1cn(-c2ccccc2)nn1 [7a, (1-Phenyl-1H-1,2,3-triazol-4-yl)methanol] | 110 ± 30 µM |  |  |
| OCc1cn(-c2cccc(F)c2)nn1 [7d, ((3-Fluorophenyl)-1H-1,2,3-triazol-4-yl)methanol] | 25 ± 3 µM |  |  |
| Cc1cccc(-n2cc(CO)nn2)c1 [7e, ((3-Methylphenyl)-1H-1,2,3-triazol-4-yl)methanol] | ~10 µM and 10 µM | b 40–50% I@10 μM. |  |
| N#Cc1cccc(-n2cc(CO)nn2)c1 [7h, ((3-Cyanophenyl)-1H-1,2,3-triazol-4-yl)methanol] | 83 ± 36 µM |  |  |
| CCOc1cccc(-n2cc(CO)nn2)c1 [7i, ((3-Ethoxyphenyl)-1H-1,2,3-triazol-4-yl)methanol] | 230 ± 20 µM |  |  |
| OCc1cn(-c2ccc(F)cc2)nn1 [7j, ((4-Fluorophenyl)-1H-1,2,3-triazol-4-yl)methanol] | ~100 µM and 100 µM |  | c 40–50% I@100 μM. |
| Cc1ccc(-n2cc(CO)nn2)cc1 [7k, ((4-Methylphenyl)-1H-1,2,3-triazol-4-yl)methanol] | 13 ± 2 µM |  |  |
| N#Cc1ccc(-n2cc(CO)nn2)cc1 [7m, ((4-Cyanophenyl)-1H-1,2,3-triazol-4-yl)methanol] | 270 ± 310 µM |  |  |
| CCOc1ccc(-n2cc(CO)nn2)cc1 [7n, ((4-Ethoxyphenyl)-1H-1,2,3-triazol-4-yl)methanol] | 78 ± 45 µM |  |  |
| OCc1cn(-c2ccc(C(F)(F)F)c(C(F)(F)F)c2)nn1 [7v, ((3,4-Bis(trifluoromethyl)phenyl)-1H-1,2,3-triazol-4-yl)methanol] | 2.2 ± 4.4 µM |  |  |
| CC(O)c1cn(-c2ccc(Cl)c(C(F)(F)F)c2Cl)nn1 (stereo not drawn) [8a, 1-(1-(2,4-Dichloro-3-(trifluoromethyl)phenyl)-1H-1,2,3-triazol-4-yl)ethan-1-ol] | 1.8 ± 1 µM |  |  |
| OCCc1cn(-c2ccc(Cl)c(C(F)(F)F)c2Cl)nn1 [8b, 2-(1-(2,4-Dichloro-3-(trifluoromethyl)phenyl)-1H-1,2,3-triazol-4-yl)ethan-1-ol] | 5.7 ± 2.5 µM |  |  |
| OCCCc1cn(-c2ccc(Cl)c(C(F)(F)F)c2Cl)nn1 [8c, 3-(1-(2,4-Dichloro-3-(trifluoromethyl)phenyl)-1H-1,2,3-triazol-4-yl)propan-1-ol] | 1.8 ± 0.5 µM |  |  |

Reference: PMC9150124, “Design of a Potent, Selective, and Brain-Penetrant Inhibitor of Wnt-Deactivating Enzyme Notum by Optimization of a Crystallographic Fragment Hit” (Journal of Medicinal Chemistry, 2022)
